Patent publication US7425640B2, “Substituted 5-carboxyamide pyrazoles and [1,2,4]triazoles as antiviral agents” (priority 2004, dated 2008)

Target: HCV RNA-dependent RNA polymerase NS5B (Δ21) (Hepatitis C virus genotype 1b, UniProt P26663)
Assay: Assay for HCV RNA-dependent RNA polymerase activity (SPA, [3H]-GTP incorporation)
Assay type: biochemical
Conditions: read-out: Δ21 Activity (IC50 μM); 50 nM NS5B (Δ21), class symbols
Method: Inhibitory activity of the present compounds against HCV RNA-dependent RNA polymerase was assayed according to the methods disclosed in United States Patent Application US2004/038993, content of which is incorporated herein by reference; and those described in Ferrari, E.; Wright-Minogue, J.; Fang, J. W. S.; Baroudy, B. M.; Lau, J. Y. N.; Hong, Z. J. Virol. 1999, 73, 1649.
Briefly, 50 μl reactions containing 20 mM HEPES (pH 7.3), 7.5 mM DTT, 20 units/ml RNasIN, 0.5 μg/ml biotinylated oligoG12, 5 μg/ml polyC, 5 μM GTP, 20 μCi/ml [^3H]-GTP, 10 mM MgCl2, 60 mM NaCl, 100 μg/ml BSA, and 50 nM NS5B (Δ21) were incubated at room temperature for three hours in 96-well plates with or without test compounds. Assay was terminated by the addition of 50 μl 10 mg/ml streptavidin-coated SPA beads supplemented with 100 mM EDTA, and the incorporation of labeled GTP determined by a TopCount Scintillation Counter. IC50 values were calculated from single experiments using 11 serial 2-fold dilutions (0.05-50 μM), and data were considered reliable only when the IC50 value of a positive internal control was within standard deviation range.

HCV RNA-dependent RNA polymerase NS5B (Δ21), sequence (P26663 2420-2989, stated change not applied): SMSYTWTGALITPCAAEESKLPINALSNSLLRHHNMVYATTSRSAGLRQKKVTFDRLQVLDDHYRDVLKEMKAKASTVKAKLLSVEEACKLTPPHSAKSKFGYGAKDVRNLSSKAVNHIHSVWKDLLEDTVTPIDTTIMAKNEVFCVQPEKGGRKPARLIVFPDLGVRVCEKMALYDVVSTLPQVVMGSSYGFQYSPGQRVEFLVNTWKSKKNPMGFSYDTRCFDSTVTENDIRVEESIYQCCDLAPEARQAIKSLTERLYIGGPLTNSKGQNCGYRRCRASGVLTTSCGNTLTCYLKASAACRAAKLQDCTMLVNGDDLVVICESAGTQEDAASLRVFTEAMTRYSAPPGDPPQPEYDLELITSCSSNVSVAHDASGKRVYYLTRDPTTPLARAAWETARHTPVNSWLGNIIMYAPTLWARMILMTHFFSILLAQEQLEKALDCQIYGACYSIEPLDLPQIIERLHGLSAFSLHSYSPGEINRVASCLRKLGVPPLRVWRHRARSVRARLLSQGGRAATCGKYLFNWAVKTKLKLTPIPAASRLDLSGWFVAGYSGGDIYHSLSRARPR

SMILES	IC50 [µM]
O=C(Cn1nc(C(=O)NCc2ccccc2Cl)cc1C(=O)N[C@H]1CCCC[C@@H]1OCc1ccccc1)N[C@H]1CCCC[C@@H]1OCc1ccccc1 [Compound 81]	0.1 to 1
O=C(Cn1nc(C(=O)O)cc1C(=O)N[C@H]1CCCC[C@@H]1OCc1ccccc1)N[C@H]1CCCC[C@@H]1NCc1ccccc1 [Compound 166]	0.1 to 1
Cc1c(S(=O)(=O)Nc2cc(C(=O)N[C@H]3CCCC[C@@H]3OCc3ccccc3)n(CC(=O)N[C@H]3CCCC[C@@H]3OCc3ccccc3)n2)sc2ccc(Cl)cc12 [Compound 90]	0.1 to 1
CC(C)S(=O)(=O)Nc1cc(C(=O)N[C@H]2CCCC[C@@H]2OCc2ccccc2)n(CC(=O)N[C@H]2CCCC[C@@H]2OCc2ccccc2)n1 [Compound 78]	0.1 to 1
O=C(Cn1nc(C(=O)NCC2CCCCC2)cc1C(=O)N[C@H]1CCCC[C@@H]1OCc1ccccc1)N[C@H]1CCCC[C@@H]1OCc1ccccc1 [Compound 137]	0.1 to 1
CNC(=O)c1cc(C(=O)N[C@H]2CCCC[C@@H]2OCc2ccccc2)n(CC(=O)N[C@H]2CCCC[C@@H]2OCc2ccccc2)n1 [Compound 145]	0.1 to 1
O=C(Cn1nc(C(=O)NOCc2cccc3ccccc23)cc1C(=O)N[C@H]1CCCC[C@@H]1OCc1ccccc1)N[C@H]1CCCC[C@@H]1OCc1ccccc1 [Compound 68]	0.1 to 1
Cc1nn(C)c(Cl)c1S(=O)(=O)Nc1cc(C(=O)N[C@H]2CCCC[C@@H]2OCc2ccccc2)n(CC(=O)N[C@H]2CCCC[C@@H]2OCc2ccccc2)n1 [Compound 112]	0.1 to 1
CC1CCC(OCc2ccccc2)C(NC(=O)c2cc(C(=O)O)nn2CS(=O)(=O)N[C@H]2CCCC[C@@H]2OCc2ccccc2)C1 (stereo partly drawn) [Compound 89]	0.1 to 1
CCOC(=O)c1cc(C(=O)N[C@H]2CCCC[C@@H]2OCc2ccccc2)n(CC(=O)Nc2cc(C)ccc2OCC2CCCC2)n1 [Compound 99]	0.1 to 1
Nc1c(C(=O)O)nn(CC(=O)N[C@H]2CCCC[C@@H]2OCc2ccccc2)c1C(=O)N[C@H]1CCCC[C@@H]1OCc1ccccc1 [Compound 147]	0.1 to 1
CC(C)CNC(=O)c1cc(C(=O)N[C@H]2CCCC[C@@H]2OCc2ccccc2)n(CC(=O)N[C@H]2CCCC[C@@H]2OCc2ccccc2)n1 [Compound 77]	0.1 to 1
O=C(Cn1nc(C(=O)O)nc1C(=O)Nc1ccccc1OCC1CCCCC1)N[C@H]1CCCC[C@@H]1OCc1ccccc1 [Compound 59]	0.1 to 1
O=C(Cn1nc(C(=O)N2CCc3ccccc3C2)cc1C(=O)N[C@H]1CCCC[C@@H]1OCc1ccccc1)N[C@H]1CCCC[C@@H]1OCc1ccccc1 [Compound 51]	0.1 to 1
O=C(Cn1nc(C(=O)NCc2ccc(C(F)(F)F)cc2)cc1C(=O)N[C@H]1CCCC[C@@H]1OCc1ccccc1)N[C@H]1CCCC[C@@H]1OCc1ccccc1 [Compound 127]	0.1 to 1
Cc1ccc(OCc2ccccc2)c(NC(=O)c2cc(C(N)=O)nn2CC(=O)N[C@H]2CCCC[C@@H]2OCc2ccccc2)c1 [Compound 98]	0.1 to 1
CC(=O)Nc1ccc(S(=O)(=O)Nc2cc(C(=O)N[C@H]3CCCC[C@@H]3OCc3ccccc3)n(CC(=O)N[C@H]3CCCC[C@@H]3OCc3ccccc3)n2)cc1 [Compound 82]	0.1 to 1
CC(C)NC(=O)Nc1cc(C(=O)N[C@H]2CCCC[C@@H]2OCc2ccccc2)n(CC(=O)N[C@H]2CCCC[C@@H]2OCc2ccccc2)n1 [Compound 167]	0.1 to 1
O=C(Cn1nc(NS(=O)(=O)c2cccc3ccccc23)cc1C(=O)N[C@H]1CCCC[C@@H]1OCc1ccccc1)N[C@H]1CCCC[C@@H]1OCc1ccccc1 [Compound 55]	0.1 to 1
CN(C(=O)c1cc(C(=O)O)nn1CC(=O)N[C@H]1CCCC[C@@H]1OCc1ccccc1)[C@H]1CCCC[C@@H]1OCc1ccccc1 [Compound 133]	0.1 to 1
O=C(Cn1nc(C(=O)NOCC2CC2)cc1C(=O)N[C@H]1CCCC[C@@H]1OCc1ccccc1)N[C@H]1CCCC[C@@H]1OCc1ccccc1 [Compound 72]	0.1 to 1
O=C(Cn1nc(NS(=O)(=O)c2ccc(Br)c(Br)c2)cc1C(=O)N[C@H]1CCCC[C@@H]1OCc1ccccc1)N[C@H]1CCCC[C@@H]1OCc1ccccc1 [Compound 58]	0.1 to 1
O=C(O)CNC(=O)c1cc(C(=O)N[C@H]2CCCC[C@@H]2OCc2ccccc2)n(CC(=O)N[C@H]2CCCC[C@@H]2OCc2ccccc2)n1 [Compound 153]	0.1 to 1

Same assay, conditions: Δ21 Activity (IC50 μM), 50 nM NS5B (Δ21), class symbols

SMILES	IC50 [µM]
O=C(Cn1nc(NS(=O)(=O)c2ccc(Br)cc2)cc1C(=O)N[C@H]1CCCC[C@@H]1OCc1ccccc1)N[C@H]1CCCC[C@@H]1OCc1ccccc1 [Compound 13]	< 0.05
COc1cccc(NC(=O)c2cc(C(=O)N[C@H]3CCCC[C@@H]3OCc3ccccc3)n(CC(=O)N[C@H]3CCCC[C@@H]3OCc3ccccc3)n2)c1 [Compound 16]	< 0.05
O=C(Cn1nc(C(=O)NCCc2ccccn2)cc1C(=O)N[C@H]1CCCC[C@@H]1OCc1ccccc1)N[C@H]1CCCC[C@@H]1OCc1ccccc1 [Compound 176]	> 1
O=C(Cn1nc(C(=O)Cc2ccccc2)cc1C(=O)N[C@H]1CCCC[C@@H]1OCc1ccccc1)N[C@H]1CCCC[C@@H]1OCc1ccccc1 [Compound 182]	> 1
O=C(Cn1nc(C(=O)O)cc1C(=O)Nc1ccc(F)cc1OCC1CCCCC1)N[C@H]1CCCC[C@@H]1OCc1ccccc1 [Compound 30]	0.05 to 0.1
COC(=O)CCCCCNC(=O)CCCCCNC(=O)c1cc(C(=O)N[C@H]2CCCC[C@@H]2OCc2ccccc2)n(CC(=O)N[C@H]2CCCC[C@@H]2OCc2ccccc2)n1 [Compound 184]	> 1
O=C(Cn1nc(NS(=O)(=O)c2ccc(C(F)(F)F)cc2)cc1C(=O)N[C@H]1CCCC[C@@H]1OCc1ccccc1)N[C@H]1CCCC[C@@H]1OCc1ccccc1 [Compound 47]	0.05 to 0.1
O=C(Cn1nc(-c2nnn[nH]2)cc1C(=O)N[C@H]1CCCC[C@@H]1OCc1ccccc1)N[C@H]1CCCC[C@@H]1OCc1ccccc1 (stereo in doubt) [Compound 18, 2-[(2-benzyloxy-cyclohexylcarbamoyl)-methyl]-5-(1H-tetrazol-5-yl)-2H-pyrazole-3-carboxylic acid (2-benzyloxy-cyclohexyl)-amide]	0.05 to 0.1
O=C(Cn1nc(NS(=O)(=O)c2ccccc2F)cc1C(=O)N[C@H]1CCCC[C@@H]1OCc1ccccc1)N[C@H]1CCCC[C@@H]1OCc1ccccc1 [Compound 37]	0.05 to 0.1
CC(O)(c1ccc(Cl)cc1)c1cc(C(=O)N[C@H]2CCCC[C@@H]2OCc2ccccc2)n(CC(=O)N[C@H]2CCCC[C@@H]2OCc2ccccc2)n1 (stereo partly drawn) [Compound 180]	> 1
Cc1ccc(OCc2ccccc2)c(NC(=O)c2cc(-c3nnn[nH]3)nn2CC(=O)N[C@H]2CCCC[C@@H]2OCc2ccccc2)c1 [Compound 1]	< 0.05
CC(C)NC(=O)c1cc(C(=O)N[C@H]2CCCC[C@@H]2OCc2ccccc2)n(CC(=O)N[C@H]2CCCC[C@@H]2OCc2ccccc2)n1 [Compound 163]	> 1
Cc1cc(C(=O)N[C@H]2CCCC[C@@H]2OCc2ccccc2)n(CC(=O)N[C@H]2CCCC[C@@H]2OCc2ccccc2)n1 [Compound 175]	> 1
O=C(Cn1nc(C(=O)O)cc1C(=O)N[C@H]1CCCC[C@@H]1OCc1ccccc1)Nc1ccc2c(c1)OCO2 [Compound 185]	> 1
Nc1ccccc1Oc1ccccc1CNC(=O)c1cc(C(=O)O)nn1CC(=O)N[C@H]1CCCC[C@@H]1OCc1ccccc1 [Compound 209]	> 1

Same assay, conditions: Δ21 Activity (IC50 μM), 50 nM NS5B (Δ21), numeric values

SMILES	IC50 [µM]
Cc1ccc(OCc2ccccc2)c(NC(=O)c2cc(-c3nnn[nH]3)nn2CC(=O)N[C@H]2CCCC[C@@H]2OCc2ccccc2)c1 [drawing 240]	0.02
